Molecular target: T1, Human CARM1 (PRMT4) (Homo sapiens, UniProt Q86X55)
T1 construct: Flag-CARM1-His was eluted with 200 ug/ml FLAG peptide in buffer A; made in house; host or cells: HEK 293F cells (BacMam virus, pFastBacMam)
T1 sequence (Q86X55 with tags, fused parts or gaps isoform Q86X55-1): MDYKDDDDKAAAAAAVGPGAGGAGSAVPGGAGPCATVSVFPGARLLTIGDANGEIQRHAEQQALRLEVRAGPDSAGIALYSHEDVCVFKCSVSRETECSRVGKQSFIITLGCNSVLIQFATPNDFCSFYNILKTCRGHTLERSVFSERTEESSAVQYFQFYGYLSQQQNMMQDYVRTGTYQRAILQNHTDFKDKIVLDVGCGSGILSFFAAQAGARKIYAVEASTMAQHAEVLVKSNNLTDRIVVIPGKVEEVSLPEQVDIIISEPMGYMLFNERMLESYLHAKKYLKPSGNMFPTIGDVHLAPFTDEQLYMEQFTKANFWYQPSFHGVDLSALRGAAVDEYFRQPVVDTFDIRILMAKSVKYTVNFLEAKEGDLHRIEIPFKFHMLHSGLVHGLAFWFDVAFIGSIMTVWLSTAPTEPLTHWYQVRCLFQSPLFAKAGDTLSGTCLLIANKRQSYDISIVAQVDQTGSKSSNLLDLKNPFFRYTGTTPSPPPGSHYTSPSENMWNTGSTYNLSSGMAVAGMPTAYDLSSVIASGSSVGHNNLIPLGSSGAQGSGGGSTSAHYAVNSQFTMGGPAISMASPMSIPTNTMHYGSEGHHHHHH
Test: CARM1 biochemical assay (3H-SAM Flashplate, peptide substrate)
Method in brief: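 Methylation of a biotin-tagged H3 residues 16-30 peptide by recombinant CARM1 tracked via 3H-SAM incorporation, read as scintillation counts after streptavidin Flashplate capture. Compound and enzyme sat 30 min at room temperature first; unlabelled SAM at 300 uM final stopped the reaction. IC50 from Hill fits of % inhibition normalised to SAH and DMSO controls.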

Structure (SMILES) | IC50 [µM]
CN(CCN)Cc1cn[nH]c1-c1ccc(F)cc1 [Compound 1] | 1.01 to 3
CN(CCN)Cc1cnn(C)c1-c1ccc(F)cc1 [Compound 4] | 0.101 to 1
CCN(CCNC)Cc1c[nH]nc1-c1ccc(F)cc1 [Compound 9] | 1.01 to 3
CNCCN(C)Cc1cnn(C)c1-c1ccc(F)cc1 [Compound 10] | 1.01 to 3
CNCCN(C)Cc1cn(CC2CCOCC2)nc1-c1ccc(F)cc1 [Compound 11] | > 10
CNCCN(C)Cc1cnn(CC2CCOCC2)c1-c1ccc(F)cc1 [Compound 12] | 3.01 to 10
CNCCN(C)Cc1c[nH]nc1-c1cccc(N)c1 [Compound 32] | 1.01 to 3
CNCCN(C)Cc1c[nH]nc1-c1ccc(CC#N)cc1 [Compound 34] | 1.01 to 3
CNCCN(C)Cc1c[nH]nc1-c1ccccc1O [Compound 35] | > 10
CNCCN(C)Cc1c[nH]nc1-c1ccccc1Oc1ccccc1 [Compound 36] | > 10
CNCCN(C)Cc1c[nH]nc1-c1cccc(OC(F)(F)F)c1 [Compound 39] | 1.01 to 3
CNCCN(C)Cc1c[nH]nc1-c1ccccc1NS(C)(=O)=O [Compound 41] | > 10
CNCCN(C)Cc1c[nH]nc1-c1cccc(NC(C)=O)c1 [Compound 42] | 1.01 to 3
CNCCN(C)Cc1c[nH]nc1-c1cccc(C(C)=O)c1 [Compound 44] | 1.01 to 3
CNCCN(C)Cc1c[nH]nc1-c1ccc(C(=O)c2ccccc2)cc1 [Compound 45] | < 0.1
CNCCN(C)Cc1c[nH]nc1-c1ccccc1-c1ccccc1 [Compound 46] | > 10
CNCCN(C)Cc1c[nH]nc1-c1ccc(-c2ccccc2)cc1 [Compound 47] | < 0.1
CNCCN(C)Cc1c[nH]nc1-c1ccccc1F [Compound 48] | 3.01 to 10
CNCCN(C)Cc1c[nH]nc1-c1ccc(F)cc1F [Compound 49] | 3.01 to 10
CNCCN(C)Cc1c[nH]nc1-c1cc(F)ccc1F [Compound 50] | 3.01 to 10
CNCCN(C)Cc1c[nH]nc1-c1ccc(F)c(F)c1 [Compound 51] | 0.101 to 1
CNCCN(C)Cc1c[nH]nc1-c1ccc(OC)c(F)c1 [Compound 52] | 1.01 to 3

Structure (SMILES) | IC50 [µM]
CNCCN(C)Cc1c[nH]nc1-c1cc(Cl)ccc1OC [Compound 53] | > 10
CNCCN(C)Cc1c[nH]nc1-c1cccc(OC)c1OC [Compound 54] | > 10
CNCCN(C)Cc1c[nH]nc1-c1ccc(OC)cc1OC [Compound 55] | 3.01 to 10
CNCCN(C)Cc1c[nH]nc1-c1c(OC)cccc1OC [Compound 56] | > 10
CNCCN(C)Cc1c[nH]nc1-c1cccc2ccccc12 [Compound 57] | 1.01 to 3
CNCCN(C)Cc1c[nH]nc1-c1ccc2ccccc2c1 [Compound 58] | 0.101 to 1
CNCCN(C)Cc1cn(CCC(O)CO)nc1-c1ccc(F)cc1 (stereo not shown) [Compound 59] | 3.01 to 10
CCNCCN(C)Cc1c[nH]nc1-c1ccc(F)cc1 [Compound 60] | > 10
COCCn1cc(CN(C)CCN(C)C)c(-c2ccc(F)cc2)n1 [Compound 61] | > 10
CCN(CCN)Cc1c[nH]nc1-c1ccc(F)cc1 [Compound 62] | 0.101 to 1
CCCN(CCN)Cc1c[nH]nc1-c1ccc(F)cc1 [Compound 63] | > 10
COCCn1ncc(CN(C)CCN(C)C)c1-c1ccc(F)cc1 [Compound 64] | > 10
CN(CCN)Cc1cnn(CCO)c1-c1ccc(F)cc1 [Compound 65] | 3.01 to 10
CN(CCN)Cc1cn(CCO)nc1-c1ccc(F)cc1 [Compound 66] | 3.01 to 10
CC(C)Oc1ccc(-c2n[nH]cc2CN(C)CCN)cc1 [Compound 67] | 0.101 to 1
CN(CCN)Cc1c[nH]nc1-c1ccc(C#N)cc1 [Compound 68] | 0.101 to 1
CN(CCN)Cc1n[nH]cc1-c1ccc(F)cc1 [Compound 69] | 3.01 to 10
CN(CCN)Cc1c[nH]nc1-c1cccc(C#N)c1 [Compound 70] | 3.01 to 10
CN(CCN)Cc1c[nH]nc1-c1cccc(F)c1 [Compound 71] | 0.101 to 1
CN(CCN)Cc1c[nH]nc1-c1ccccc1F [Compound 72] | 3.01 to 10
CN(CCN)Cc1c[nH]nc1-c1ccccc1 [Compound 73] | 1.01 to 3
CN(CCN)Cc1c[nH]nc1-c1ccc(C(C)(C)C)cc1 [Compound 74] | 3.01 to 10

Structure (SMILES) | IC50 [µM]
CC(C)N(CCN)Cc1c[nH]nc1-c1ccc(F)cc1 [Compound 75] | > 10
CN(CCN)Cc1cn(CC(O)CO)nc1-c1ccc(F)cc1 (stereo not shown) [Compound 76] | > 10
CN(CCN)Cc1cn(C2COC2)nc1-c1ccc(F)cc1 [Compound 77] | 3.01 to 10
NCCN(Cc1c[nH]nc1-c1ccc(F)cc1)C1CC1 [Compound 78] | > 10
CN(CCN)Cc1cn(CC2COC2)nc1-c1ccc(F)cc1 [Compound 79] | > 10
CN(CCN)Cc1cnn(CC2COC2)c1-c1ccc(F)cc1 [Compound 80] | > 10
CN(CCN)Cc1cnn(C2COC2)c1-c1ccc(F)cc1 [Compound 81] | 1.01 to 3
CN(CCN)Cc1c[nH]nc1-c1ccc(N2CCNCC2)cc1 [Compound 82] | 3.01 to 10
CN(CCN)Cc1nn(C)cc1-c1ccc(C#N)cc1 [Compound 83] | 1.01 to 3
CN(CCN)Cc1c(-c2ccc(C#N)cc2)cnn1C [Compound 84] | > 10
CN(CCN)Cc1c[nH]nc1-c1ccc(C(F)(F)F)cc1C(F)(F)F [Compound 85] | > 10
CN(CCN)Cc1c[nH]nc1-c1ccc(Cl)cc1Cl [Compound 86] | 3.01 to 10
COc1ccc(-c2n[nH]cc2CN(C)CCN)c(OC)c1 [Compound 87] | 3.01 to 10
Cc1ccc(-c2n[nH]cc2CN(C)CCN)c(C)c1 [Compound 88] | 3.01 to 10
CN(CCN)Cc1c[nH]nc1-c1ccc(F)cc1Cl [Compound 89] | 3.01 to 10
Cc1ccc(-c2n[nH]cc2CN(C)CCN)c(Cl)c1 [Compound 90] | 3.01 to 10
Cc1ccc(Cl)c(-c2n[nH]cc2CN(C)CCN)c1 [Compound 91] | > 10
CN(CCN)Cc1c[nH]nc1-c1ccc(C(F)(F)F)cc1 [Compound 92] | 0.101 to 1
CN(CCN)Cc1c[nH]nc1-c1ccc(OC(F)(F)F)cc1 [Compound 93] | 1.01 to 3
CN(CCN)Cc1c[nH]nc1-c1ccc(OC(F)F)cc1 [Compound 94] | 0.101 to 1
